In data set [1] the test system is trachea. In words: Passive Schultz-Dale reaction (broncho-dilatory effect) on isolated tracheal strips. As to conditions: Cavia porcellus; 50% relaxation of antigen (EWA, 1 µg/ml)-contracted tracheal strips of passively sensitized guinea pigs. On the procedure:
Guinea pigs were passively sensitized as follows. Hartley male guinea pigs weighing 350 to 500 g were injected intraperitoneally with rabbit anti-egg albumin (EWA) serum prepared by the method of Koda et al. [Folia pharmacol., Japon 66, 237, (1970)]. After 24 hours, the guinea pigs were stunned and exsanguinated, and then trachea was excised. The zig-zag strips of the trachea were prepared by the method of Emmerson and Mackay [J. Pharm. Pharmacol., 31, 798, (1979)]. The strips were suspended in Krebs-Henseleit solution at 37°C under aeration of a mixed gas of 95% oxygen and 5% carbon dioxide, and incubated for one hour. Antigen (EWA) was then introduced in the solution (final concentration; 1 µg/ml), and the contraction was measured by isotonictransducer (TD-112s, made by Nihon Kohden K.K., Japan) and recorded on a recorder (Type 3066, made by Yokogawa-Hokushin Denki, K.K. Japan). After the contraction curves reached plateau the compounds were successively added in order to get cumulative concentration-relaxation curves. Concentration of 50% relaxation rate (IC50) was calculated from the regression line, which was obtained from cumulative concentration-relaxation curves.

In data set [2] the test system is male dd-mice. Description: Acute toxicity. Format: in vivo. The conditions noted are these: Minimum lethal dose, oral, mortality observed for seven days. On the procedure:
The compounds were orally administrated to male dd-mice weighing 20 ± 1 g. Minimum lethal dose (MLD) was determined by observing the mortality for seven days after the administration.

Data set [3] deals with Wistar male rats. Description: Diuretic activity. Type of data set: in vivo. As to conditions: Rattus norvegicus, po, 25 mg/kg orally, urine taken for 6 hours. On the procedure: Wistar male rats weighing 150 to 300 g were used after fasting for 18 hours. […] The test was performed using 3 groups per test compound, and each group consists of 3 animals. The urine was metered by a measuring cylinder and electrolytes (Na^+ and K^+) in the urine were analyzed by flame photometer (model […]: Hitachi Ltd.). Parameters in Table 3 are represented by relative value for control.

The subject of data set [4] is Hartley male guinea pigs. Description: Experimental asthma (collapse time after antigen aerosol). As to conditions: 1 hour before 1.5% EWA aerosol, n=3-10 mean±S.E.M., control 254 ± 18. Format: in vivo. On the procedure: Guinea pigs were passively sensitized as follows. Hartley male guinea pigs weighing 350 to 500 g were intraperitoneally injected with 1 ml of rabbit anti-egg alubmin (EWA) serum prepared by the method of Koda et al. [Folia pharmacol., Japon, 66, 237 (1970)]. The animals were treated with intraperitoneal injection of diphenhydramine (20 mg/kg) and propranolol (5 mg/kg), 30 minutes before administration of test compounds. 17 hours after the sensitization, the test compounds (50 mg/kg or 5 mg/kg) or saline (control) were orally administrated to sensitized animals. After one hour from the administration of the test compounds, the guinea pigs were placed in plastic observation box and were exposed to an aerosal antigen of 1.5% EWA.
The time until the onset of respiratory distress-like symptom [collapse time (second)] was measured as a result of experimental asthma.

Data set [5] has as its system male dd mice. In words: Inhibition of platelet activating factor (PAF)-induced mortality. Format: in vivo. The conditions noted are these: Mus musculus, minimum effective dose, oral, 1 hour before 40 µg/kg PAF i.v., mortality 2 hours after PAF, read-out: PAF-induced mortality MED. As for the experimental part: The experiment was performed by a minor modification of method of Carlson et al. [Agents and Actions, 21, 379 (1987)]. Groups each consisting of 10 male dd mice (weighing 28 to 32 g) were used, and 100 mg/kg of test compound or a saline (control) was orally administrated. One hour after the administration of test compound, 40 µg/kg of PAF (manufactured by Avanti Polar Lipids Co., Ltd.) was intravenously administered. Two hours after PAF injection, the mortality rate of the animals was observed. […]

For data set [6], the system named is Male ddy mice. In words: Electroconvulsive shock (ECS)-induced amnesia, step through passive avoidance. Format: in vivo. The conditions noted are these: mean ± S.E.M., control 70.9±13.5. As for the experimental part:
Male ddy mice (weighing 23 to 29 g) were used and each group consists of 14 to 15 animals. These tests were performed with a step through type passive avoidance apparatus. As experimental apparatus, two rooms (bright and dark) with automatic management system were used. An experimental apparatus is composed of a bright room equipped with 4W of fluorescent light (15 x 9 x 11 cm) and a dark room (15 x 14 x 18 cm), the two rooms are separated by a guillotine door of 3 x 3 cm. The floor of both rooms is stainless steal grid floor and the weak electric current can be send the grid floor of dark room. In the automatic management system, latency of acquisition trial and test trial are measured automatically by controlling with a controller (TK-402, by UNICOM, Japan).
The test compound was dissolved in saline and saline was used as a control. The test compound and the saline (control) were orally administered 60 minutes before the acquisition trial, respectively.
Acquisition trial for learning was performed as follows. […] As soon as the mouse entered the dark room, a scrambled foot-shock (0.18 mA) was delivered to the floor grid for 2 seconds. In the test trial, given 24 hours after the acquisition trial, the animal was again placed in the bright room and the response latency to enter the dark room was measured. The mice which required over 60 seconds to move from the bright room into the dark room were excluded from the test trial. Immediately after the acquisition trial, electric convulsive shock (ECS) (25 mA, 0.2 second, 2000 V) was loaded on mice. The test trial was performed 24 hours after the ECS treatment as follows. The mice received the acquisition trial were placed in the bright room and, latency from the door opening to the entrance of the whole body of animal into the dark room was measured. The maximum measurement time was 600 seconds and latency exceeding 600 seconds was recorded as 600 seconds.
Statistical significance between the control group and test compound treated group was judged by Man Whitney U-test.

The subject of data set [7] is mice. In words: Scopolamine-induced amnesia, step through passive avoidance. Format: in vivo. As to conditions: scopolamine 0.5 mg/kg i.p., mean ± S.E.M., controls 40.9±8.1 (Compound 41), 37.0±6.2 (Compound 51). On the procedure:
Acquisition trial was performed in a manner similar to Experiment (f). Amnestic treatment was performed by intraperitoneal administration of scopolamine (0.5 mg/kg), 30 minutes prior to the acquisition trial. The test trial was performed 24 hours after the acquisition trial and its latency was determined as in Experiment (f).
Preparation of administrated test compound was performed in a manner similar to Experiment (f). Test compound and the saline were orally administered 60 minutes before the acquisition trial, respectively.

The mark [8] stands for this setting: relative value for control (1.00), read-out: Na^+/K^+.
Where [9] appears, read: relative value for control (100), read-out: Excretion of K^+.
[10] abbreviates: relative value for control (100), read-out: Excretion of Na^+.
Setting [11] is: relative value for control (100), read-out: Urine volume.
[12] abbreviates: 0.625 mg/kg orally 60 minutes before acquisition trial.
[13] abbreviates: 2.5 mg/kg orally 60 minutes before acquisition trial.
Where [14] appears, read: 10 mg/kg orally 60 minutes before acquisition trial.
The mark [15] stands for this setting: 40 mg/kg orally 60 minutes before acquisition trial.

Data on 8 compounds can be found in patent publication EP0417790B1, “S-triazolo[3,4-i]purine derivatives” (Kyowa Hakko Kogyo Co., Ltd., priority 1989, dated 1991).

Read-outs that look alike come from different tables or passages of the source. Some results are limits rather than exact numbers.

As for `CCCn1c(=O)n2c(-c3ccncc3)nnc2c2c1ncn2C` [Compound 3, 6,9-Dihydro-9-methyl-6-n-propyl-3-(4-pyridyl)-5H-1,2,4-triazolo[3,4-i]purin-5-one], in data set [1], the IC50 amounted to 0.032 µM. Besides, the MLD in data set [2] turned out to be 100 mg/kg. The response vs control in vivo at 25 mg/kg came to 109% in data set [3] (setting [8]), 196% in data set [3] (setting [9]), 224% in data set [3] (setting [10]) and 274% in data set [3] (setting [11]). Further, the “Experimental asthma Collapse time” value in data set [4] (50 mg/kg orally) is 422 ± 130 s.

In the case of `CCCn1c(=O)n2c(-c3cccnc3)nnc2c2c1ncn2C` [Compound 4, 6,9-Dihydro-9-methyl-6-n-propyl-3-(3-pyridyl)-5H-1,2,4-triazolo[3,4-i]purin-5-one], the IC50 in data set [1] was found to be 7.7 µM. The compound further came in with an MLD in data set [2] of 200 mg/kg. Besides, the response vs control in vivo at 25 mg/kg in data set [3] (setting [8]) came out at 125%; in data set [3] (setting [9]), 134%; in data set [3] (setting [10]), 167%; in data set [3] (setting [11]), 177%. For the same compound, in data set [4] (50 mg/kg orally), the “Experimental asthma Collapse time” value was 358 ± 65 s.

In the case of `CCCn1c(=O)n2c(-c3ccc(Cl)cc3)nnc2c2c1ncn2C` [Compound 12, 3-(4-Chlorophenyl)-6,9-dihydro-9-methyl-6-n-propyl-5H-1,2,4-triazolo[3,4-i]purin-5-one], the IC50 in data set [1] was 26 µM. For the same compound, the minimal effective dose in data set [5] amounted to 100 mg/kg. Also, the MLD in data set [2] was >300 mg/kg. Further, the response vs control in vivo at 25 mg/kg in data set [3] (setting [8]) was determined as 142%; in data set [3] (setting [9]), 129%; in data set [3] (setting [10]), 183%; in data set [3] (setting [11]), 198%. The “Experimental asthma Collapse time” value in data set [4] (5 mg/kg orally) was 399 ± 55 s.

Consider `CCCn1c(=O)n2c(C)nnc2c2[nH]cnc21` [Compound 25, 6,9-Dihydro-3-methyl-6-n-propyl-5H-1,2,4-triazolo[3,4-i]-purin-5-one], for which the 50% inhibitory concentration (IC50) in data set [1] turned out to be 0.42 µM. Moreover, the minimal effective dose in data set [5] was determined as 100 mg/kg. In addition, the MLD in data set [2] is on record as 100 mg/kg. For the same compound, the response vs control in vivo at 25 mg/kg was 163% in data set [3] (setting [8]), 119% in data set [3] (setting [9]), 193% in data set [3] (setting [10]) and 161% in data set [3] (setting [11]). The “Experimental asthma Collapse time” value in data set [4] (50 mg/kg orally) came to 590 ± 9.8 s.

In the case of `CCCn1c(=O)n2c(-c3ccncc3)nnc2c2[nH]cnc21` [Compound 31, 6,9-Dihydro-6-n-propyl-3-(4-pyridyl)-5H-1,2,4-triazolo[3,4-i]purin-5-one], in data set [1], the half-inhibitory concentration (IC50) was 11 µM. Also, the minimal effective dose in data set [5] was found to be 25 mg/kg. Besides, in data set [2], the MLD was >300 mg/kg. Moreover, the response vs control in vivo at 25 mg/kg in data set [3] (setting [8]) turned out to be 166%; in data set [3] (setting [9]), 118%; in data set [3] (setting [10]), 196%; in data set [3] (setting [11]), 191%. For the same compound, the “Experimental asthma Collapse time” value in data set [4] (50 mg/kg orally) was found to be 512 ± 52 s.

Consider `CCCCn1c(=O)n2c(-c3ccncc3)nnc2c2[nH]cnc21` [Compound 38, 6-n-Butyl-6,9-dihydro-3-(4-pyridyl)-5H-1,2,4-triazolo-[3,4-i]purin-5-one], for which the concentration for half-maximal inhibition (IC50) in data set [1] was > 40 µM. Further, the minimal effective dose in data set [5] came out at 25 mg/kg. For the same compound, in data set [2], the MLD was >300 mg/kg. Further, the response vs control in vivo at 25 mg/kg in data set [3] (setting [8]) was found to be 163%; in data set [3] (setting [9]) it was 180%; in data set [3] (setting [10]) it was 293%; in data set [3] (setting [11]), 353%. For the same compound, the “Experimental asthma Collapse time” value in data set [4] (50 mg/kg orally) amounted to 401 ± 78 s.

As for `CCCn1c(=O)n2c(=O)[nH]nc2c2c1ncn2C` [Compound 41, 9-Methyl-6-n-propyl-2,5,6,9-tetrahydro-3H-1,2,4-triazolo[3,4-i]purin-3,5-dione], the “Latency of test trial” value in data set [6] (setting [12]) was 105.9 ± 44.0 s; in data set [6] (setting [13]), 111.3 ± 20.1 s; in data set [6] (setting [14]), 97.4 ± 38.7 s; in data set [6] (setting [15]) it was 171.8 ± 43.1 s; in data set [7] (setting [12]) it was 96.8 ± 21.5 s; in data set [7] (setting [13]), 115.8 ± 26.6 s. The “Latency of test trial” value in data set [7] (setting [14]) was 53.4 ± 8.9 s; in data set [7] (setting [15]), 74.3 ± 18.8 s. For the same compound, the MLD in data set [2] was >300 mg/kg.

Regarding `Cn1c(=O)c2[nH]cnc2n(C)c1=O` [Theophylline, reference compound], the concentration for half-maximal inhibition (IC50) in data set [1] worked out at 23 µM. In addition, the minimal effective dose in data set [5] was found to be 100 mg/kg. Besides, the “Experimental asthma Collapse time” value in data set [4] (50 mg/kg orally) is 414 ± 47 s.

What is called IC50 is the concentration needed to halve the response being measured.
